Assays:
[1] = tested on: tubulin; assay: Population analysis of spatial organization of tubulin with five annular domains; conditions: five perinuclear annular domains; n>20 cells; duplicate
[2] = tested on: 3T3 cells; assay: Histogram distribution of microtubule-associated pixel intensities (OD variance); format: cell-based; conditions: individual 3T3 cells
Description: Finally, histogram distribution of microtubule-associated pixel intensities in individual 3T3 cells was used to distinguish control cells from cells treated with nocodazole, paclitaxel, and vinblastine.

[3] = tested on: microtubules; assay: Peaks and valleys of pixel intensity around the perinuclear ring mask (modal classification)
[4] = tested on: tubulin; conditions: single annular domain divided into 24 angular domains
[5] = tested on: microtubules; assay: Preliminary time-course and 12 hour dose-response evaluations of microtubule polymer mass; format: cell-based
Description: (§1) Cell culture/drug treatments: Cells were plated on 96-well plates in the appropriate cell culture media plus 10% FBS. […] Different plating densities and treatment times were explored to maximize the observable effects of the drugs.
(§2) Immunofluorescence: This included three steps: (1) Extraction of soluble (monomeric) tubulin by permeabilizing the cells with 0.5% Triton X-100 in a microtubule stabilizing buffer, in order to remove unpolymerized tubulin. (2) Fixation of intracellular protein with 4% formaldehyde. (3) Microtubule, DNA, and (optional) total cellular protein fluorescence labeling. Microtubule staining was carried out by a standard immunofluorescence procedures using a primary mouse monoclonal antibody (anti-tubulin IgG), and affinity purified polyclonal secondary antibody (ALEXA FLUOR® 488-conjugated anti-mouse IgG (Molecular Probes, Inc. Eugene, OR)). After the cells were stained, DNA was labeled with 10 microgram/ml Hoechst 33342.
(§3) For cells triple-stained with tetramethylrhodamine iodoacetate (TMRIA) (Molecular Probes), Hoechst 33342, and ALEXA FLUOR® 488 (tubulin), or cells double stained with Hoechst 33342 and ALEXA FLUOR® 488, an XF57 filter block was used.
Image Analysis: Quantitative determination of microtubule polymer levels was performed using the methods described above. For analysis, a binary nuclear mask was made by thresholding the Hoechst image. The nuclear image was dilated to produce a perinuclear ring mask, where cytoplasmic tubulin polymer was measured. The ring mask allowed measurement of average intensity levels associated with the microtubule image. […] Other methods of image analysis that were used are described below.
Quantitation of microtubule-associated intensity was carried out by summing the pixel intensities in the microtubule (MT) channel in the area covered by the perinuclear ring mask. This integrated pixel intensity was then divided by the actual area of the perinuclear ring mask to arrive at the mean or “average” pixel intensity in the region covered by the perinuclear ring. From these measurements a MT polymerization index was calculated by normalizing the amount of MT fluorescence in a treated, “experimental” cell population, versus the amount of MT-associated fluorescence in an untreated, control cell population. This polymerization index represents a fraction or percentage of MT polymerization or depolymerization, relative to the untreated controls. Other methods of quantitation that were used are described below.
In addition, preliminary time-course and 12 hour dose-response evaluations using paclitaxel, nocodazole, and vinblastine were performed.

[6] = tested on: 3T3 cells; assay: Quantitative determination of microtubule polymer content (perinuclear ring mask, anti-tubulin immunofluorescence); format: cell-based; conditions: two-hour treatment
Description: as §1
Immunofluorescence: This included three steps: (1) Extraction of soluble (monomeric) tubulin by permeabilizing the cells with 0.5% Triton X-100 in a microtubule stabilizing buffer, in order to remove unpolymerized tubulin. (2) Fixation of intracellular protein with 4% formaldehyde. (3) Microtubule, DNA, and (optional) total cellular protein fluorescence labeling. […]
Image Analysis: Quantitative determination of microtubule polymer levels was performed using the methods described above. […] The nuclear image was dilated to produce a perinuclear ring mask, where cytoplasmic tubulin polymer was measured. […]
Quantitation of microtubule-associated intensity was carried out by summing the pixel intensities in the microtubule (MT) channel in the area covered by the perinuclear ring mask. […] From these measurements a MT polymerization index was calculated by normalizing the amount of MT fluorescence in a treated, “experimental” cell population, versus the amount of MT-associated fluorescence in an untreated, control cell population. […] Other methods of quantitation that were used are described below. […]

[7] = tested on: Fibroblasts; assay: Cell-based analysis of microtubule-targeting drugs, anti-tubulin immunocytochemistry, fibroblasts
Description: (§4) The mechanism of action of microtubule-targeting drugs was assessed in a cell component of interest field, represented as an image of tubulin-stained cells. Fibroblasts, epithelial cells,) and monocytes were left untreated ) or were treated with a variety of microtubule-targeting drugs. Cells were fixed and then stained with anti-tubulin immunocytochemistry, in order to determine how the different drugs affect morphological organization of microtubules.

[8] = tested on: epithelial cells; assay: Cell-based analysis of microtubule-targeting drugs, anti-tubulin immunocytochemistry, epithelial cells
Description: as §4

[9] = tested on: monocytes; assay: Cell-based analysis of microtubule-targeting drugs, anti-tubulin immunocytochemistry, monocytes
Description: as §4

[10] = tested on: microtubules; assay: Microtubule organization using concentric perinuclear ring masks; format: cell-based; conditions: for effect on microtubule organization / pattern of microtubule-associated fluorescence: similarity to other treatments: five sequential dilations of perinuclear ring mask, duplicate wells
Description: Domains were defined by five sequential dilations of a perinuclear ring mask, and measurements were made of the mean microtubule-associated intensity, the standard deviation of the microtubule-associated intensity, the mean cytoplasm to nucleus fluorescence intensity ratio, and cell-normalized microtubule fluorescence intensity. For each drug treatment condition, experiments were performed in duplicate.
Finally, the slope of the best linear fit of the microtubule associated fluorescence was calculated as a function of the angular dilation. This way, it was possible to compare the rate of change of these parameters as a function of domain position.

[11] = tested on: microtubules; assay: Microtubule organization using a single perinuclear ring mask and field based threshold measurements (spot count, spot area); format: cell-based; conditions: min-max plates
Description: as §1, §2, §3

[12] = tested on: tubulin; assay: Multi-domain analysis of tubulin organization (angular, transverse, annular domains); format: cell-based; conditions: single cell
Description: Referring to FIG. 8, experiments were conducted to analyze tubulin organization in untreated (8A-D) and drug-treated (8E-H) fields of cells using angular (8B,F), transverse (8C, G) or annular domains (8D,H). […] For the purpose of analysis, cell boundaries were defined (8B-D, 8F-H) based on the reference component origin (which here is the nuclear perimeter). The component of interest field was thresholded to show the brightest pixels, and a single cell is shown for illustration purposes.
The spatial organization of intensity distribution within individual cells was then analyzed in an object of interest image, using annular domains (as in FIGS. […]). The data are shown in FIG. 9 as graphs of tubulin distribution in a single control (9A-C) and a vinblastine-treated cell (9D-F). Annular domains were created by sequential dilations of the nuclear perimeter. The position of the domain furthest away from the nucleus was given a value of one, and domain position increases in number with nuclear proximity. For each plot, measurements of tubulin distribution were normalized, by dividing the measurement obtained in a particular domain by the measurement obtained in the domain that is immediately adjacent to the nucleus. Intensity distribution within each domain was analyzed using a mathematical function to calculate the following: (1) the average pixel intensity (a measure proportional to tubulin mass) (9A, D); (2) texture difference moment (a measure proportional to tubulin periodicity) (9B, E); and (3) OD variance (a measure proportional to tubulin clustering) (9C,F). To determine the trends within each cell, data points were fitted with a linear function. […] For comparing cell populations under different treatment conditions, a number of cells in each condition can be analyzed as a sample, and the average slope within each sample used for statistical analysis.

[13] = nanomolar concentrations, 12 hour incubation
[14] = micromolar doses, 12 hour incubation

SMILES: COC(=O)Nc1nc2ccc(C(=O)c3cccs3)cc2[nH]1 [nocodazole]
- standard deviation of mean tubulin fluorescence: similarity of tubulin organization to other treatments [1]: more similar to colchicine-treated cells
- whether OD variance of the pixel intensity distribution distinguishes treated vs. control cell populations [2]: could distinguish
- type of spatial distribution of fluorescent pixel intensities at the nuclear periphery (mono-modal, non-modal, multi-modal) [3]: Non-modal
- above threshold peaks in intensity distribution per cell, on average [4]: 2 spots
- effect on microtubules and cell division [5, 13]: inhibit cell division without necessarily inducing the net depolymerization of microtubules
- microtubule polymer mass [5, 13]: increase
- cell-associated microtubule intensity ([6]; 5 micromolar): significant decrease
- morphological organization of microtubules [7]: depolymerized the microtubules, and led to a diffuse staining of tubulin throughout the cytoplasm
- morphological organization of microtubules [8]: induced microtubule depolymerization and led to diffuse staining of tubulin throughout the cell cytoplasm
- morphological organization of microtubules [9]: led to microtubule depolymerization and led to diffuse tubulin staining
- slope of best linear fit of microtubule associated fluorescence vs domain position: similarity to other treatments [10]: most similar to the slope of cells treated with colchicine
- effect on microtubule organization [10]: microtubule disruption
- pattern of microtubule-associated fluorescence: similarity to other treatments [10]: resembled colchicine treated cells

SMILES: CC(=O)O[C@H]1C(=O)[C@@]2(C)[C@H]([C@H](OC(=O)c3ccccc3)[C@]3(O)C[C@H](OC(=O)[C@H](O)[C@@H](NC(=O)c4ccccc4)c4ccccc4)C(C)=C1C3(C)C)[C@]1(OC(C)=O)CO[C@@H]1C[C@@H]2O [paclitaxel, Paclitaxel]
- standard deviation of mean tubulin fluorescence: similarity of tubulin organization to other treatments [1]: more similar to vinblastine-treated cells
- whether OD variance of the pixel intensity distribution distinguishes treated vs. control cell populations [2]: could distinguish
- well average spot area [11]: increased
- well normalized spot counts [11]: partly increased
- type of spatial distribution of fluorescent pixel intensities at the nuclear periphery (mono-modal, non-modal, multi-modal) [3]: Multimodal
- above threshold peaks in intensity distribution per cell, on average [4]: 4 spots
- quality of dose-response data ([5]; 12 hour dose-response, preliminary): excellent dose response data
- cell-associated microtubule intensity ([6]; 1 micromolar): significant increase
- morphological organization of microtubules [7]: formation of microtubule bundles, and destroyed the focal organization of microtubules
- morphological organization of microtubules [8]: induced formation of microtubule bundles in association with the cell edge
- morphological organization of microtubules [9]: decreased microtubule staining in the nuclear region
- slope of best linear fit of microtubule associated fluorescence vs domain position: similarity to other treatments [10]: most similar to the slope of cells treated with vinblastine
- effect on microtubule organization [10]: formation of microtubule bundles or aggregates in the cytoplasm
- pattern of microtubule-associated fluorescence: similarity to other treatments [10]: resembled vinblastine treated cells

SMILES: CC[C@]1(O)C[C@@H]2CN(CCc3c([nH]c4ccccc34)[C@@](C(=O)OC)(c3cc4c(cc3OC)N(C)[C@H]3[C@@](O)(C(=O)OC)[C@H](OC(C)=O)[C@]5(CC)C=CCN6CC[C@]43[C@@H]65)C2)C1 [vinblastine]
- whether OD variance of the pixel intensity distribution distinguishes treated vs. control cell populations [2]: could not distinguish
- well average spot area [11]: significant decrease
- well normalized spot counts [11]: partly increasing
- type of spatial distribution of fluorescent pixel intensities at the nuclear periphery (mono-modal, non-modal, multi-modal) [3]: Multimodal
- above threshold peaks in intensity distribution per cell, on average [4]: 3 spots
- effect on tubulin organization [5, 14]: induced the formation of tubulin paracrystals
- microtubule polymer mass [5, 14]: apparent increase
- effect on microtubules and cell division [5, 13]: depolymerized microtubules and inhibited microtubule polymerization
- morphological organization of microtubules [7]: depolymerized the microtubules and led to the formation of tubulin paracrystals
- morphological organization of microtubules [8]: disrupted the microtubules and led to the formation of tubulin paracrystals
- morphological organization of microtubules [9]: intermediate effect between nocodazole and paclitaxel
- distribution of brightest thresholded pixels over angular, transverse or annular domains ([12]; FIG. 8): broader distribution
- OD variance (tubulin clustering) as a function of domain position ([12]; FIG. 9): marked decrease
- texture difference moment (tubulin periodicity) as a function of distance from the nucleus ([12]; FIG. 9): centrifugal increase
- trend of average pixel intensity (tubulin mass) as a function of annular domain position ([12]; linear fit, FIG. 9): positive slope
- effect on microtubule organization [10]: formation of microtubule bundles or aggregates in the cytoplasm
